Experimental data taken from US20240024500A1, “ELECTROSTATIC NANOPARTICLES AND USE THEREOF” (Westfaelische Wilhelms-Universitaet Muenster, priority 2020, published 2024).
Like-named read-outs stand apart in the source and are kept apart here.

Columns and labels:
HBL-1 DLBCL-cells = test: NSG-HBL1 xenograft model; details: after treatment start
[1] = Cell-free vesicle formation, light/fluorescence microscopy; assay type: physicochemical; details: charged vs uncharged cargo, modified vs unmodified antibody
Description: Based upon these measurements, we hypothesized that the antibody-protamine/free SMCC-protamine/siRNA complexes form outside cells and independently of a cellular context. […]
We further analysed the properties of the different conjugation products according to their capacity to form vesicular-structures without cells when these conjugation products were incubated with Alexa488-control-siRNA (FIG. 40 G-L) as well as with EGFR-positive A459 cells (FIG. 40 M-R). When cetuximab was conjugated with SMCC-protamine at ratios of 1:1 up to 1:10, no efficient cell-free vesicle formation could be observed (FIG. 40 G-I), while at the ratio 1:32, the vesicle formation was very abundant FIG. 40 J) and decreased at ratios 1:50 and 1:100 (FIG. 40 K-L). The internalisation capacity of these complexes was highest upon conjugation 1:32 (FIG. 40 P), decrease upon conjugation 1:10 (FIG. 40 O). […] This hinted at an optimal complex formation of cetuximab with SMCC-protamine of 1:32, since this lead to the most efficient conjugation, vesicle formation without cells and internalisation into cells.
To further elucidate the function of SMCC-protamine coupled to the antibody and as free molecule within the complex, we titrated the amount of SMCC-protamine added to the antibody-protamine-conjugates that were depleted from free SMCC-protamine by HPLC. […] We added different amounts of free SMCC-protamine and protamine alone to anti-EGFR-mAB-P (FIG. 41).

HBL-1 cells = test: Colony formation assay, HBL-1, ibrutinib-Cy3.5 cargo; assay type: cell-based
Description: Next, we planned functional assays for identifying the effectivity of the antibody-inhibitor-complexes. DLBCL tumor cells were seeded in methylcellulose to form anchorage-free colony growth as a substitute marker for tumorigenicity. Assays were treated with combinations of antibody-inhibitor complexes and compared with appropriate control groups.
This colony-assay is used for quantification of anchorage-independent clonal cell growth and is a standard in vitro surrogate for tumorigenicity in vivo.

[2] = molecular target: EGFR (epidermal growth factor receptor) on cells (UniProt P00533); test: cell-based or functional assay

Row | nanoparticle formation with antibody carriers ([1]; listed as uncharged ibrutinib) | Alexa488-siRNA shuttled into RD cells (FACS) [2] | internalisation of Alexa488-siRNA into RD cells (FACS) [2] | Compound | day by which all / the last mice had to be sacrificed (HBL-1 DLBCL-cells) | nanoparticle formation with antibody carriers [1] | colony formation of HBL-1 cells (HBL-1 cells) | colony formation of HBL-1 cells (HBL-1 cells; listed as unconjugated rituximab) | colony formation of HBL-1 cells (HBL-1 cells; listed as unmodified rituximab (αCD20-mAB))
1 | not | – | – | C=CC(=O)N1CCC[C@@H](n2nc(-c3ccc(Oc4ccccc4)cc3)c3c(N)ncnc32)C1 [ibrutinib, 1-[(3R)-3-[4-amino-3-(4-phenoxyphenyl)pyrazolo[3,4-d]pyrimidin-1-yl]piperidin-1-yl]prop-2-en-1-one] | 20 days | not seen | much lesser degree | – | –
2 | – | > 90 % of cells | < 90 % of cells | cetuximab-SMCC-protamine conjugate (anti-EGFR-mAB-protamine, used with free SMCC-protamine) (antibody) | – | – | – | – | –
3 | – | – | – | rituximab: anti-CD20 antibody | ≤ 16 days | not seen | – | only a mild effect | not
